Reference: patent publication US7091357B2, “Chain-modified pyridino-N substituted nicotine compounds for use in the treatment of CNS pathologies” (University of Kentucky Research Foundation, priority 2001, dated 2006)
Structures can show the parent of a compound that is named as a salt. Where two headings read alike, the source gives them in different places.

Legend:
[1] = biological target: T1, Rat Striatal Nicotinic Acetylcholine Receptors (Rattus norvegicus, UniProt P09483+P12390); assay: [3H]-NIC binding assay, rat striatal membranes; details: 3 nM [3H]-NIC, at least 3 independent experiments, read-out: Ki, displacement of [3H]-NIC binding
T1 construct: from tissue; host or cells: rat striatal membranes
Experimental: Striata from two rats were dissected, pooled, and homogenized with a Tekmar polytron in 10 volumes of ice-cold modified Krebs-HEPES buffer (20 mM HEPES, 118 mM NaCl, 4.8 mM KCl, 2.5 mM CaCl2, 1.2 mM MgSO4, adjusted to pH 7.5). The homogenates were incubated at 37° C. for 5 minutes and centrifuged at 15,000 g for 20 minutes. The pellet was resuspended in 10 volumes of ice-cold MilliQ water, incubated for 5 minutes at 37° C., and centrifuged at 15,000 g for 20 mm. The second pellet was then resuspended in 10 volumes of fresh ice-cold 10% Krebs-HEPES buffer, incubated at 37° C., and centrifuged at 15,000 g for 20 minutes. The latter sequence of resuspension, incubation, and rentrifugation was repeated. The pellet was frozen under fresh 10% Krebs-HEPES buffer and stored at −40° C. until assayed. Upon assay, the pellet was resuspended in the Krebs-HEPES buffer, incubated at 37° C. for 5 minutes, and centrifuged at 15,000 g for 20 mm. The final pellet was resuspended in 3.6 ml ice-cold MilliQ water which provided for approximately 200 μg protein per 100 μl aliquot. Competition assays were performed in triplicate in a final volume of 200 μl Krebs-HEPES buffer containing 250 mmol Tris buffer (pH 7.5 at 4° C.). […] After a 90 min incubation at 4° C., reactions were terminated by dilution of the samples with 3 ml of ice-cold Krebs-HEPES buffer followed immediately by filtration through Whatman GF/B glass fiber filters (presoaked in 0.5% polyethyleneimine) using a Brandel Cell Harvester. Filters were rinsed three times with 3 ml of ice-cold Krebs-HEPES buffer, transferred to scintillation vials, and 5 ml scintillation cocktail (Research Products International Corp., Mt. Prospect, Ill.) added. Nonspecific binding determined in triplicate was defined as binding in the presence of 10 μM NIC. Binding parameters were determined using the weighted, least squares nonlinear regression analysis.

[2] = system: putative α3β2* receptor subtype; assay: Inhibition of S-(−)-NIC-evoked [3H]-DA release from rat striatal slices; type: cell-based; details: rat striatal slices superfused 60 minutes with analog prior to NIC (10 μM)
Experimental: Rat striatal slices (500 μm thickness, 6–8 mg wet weight) were incubated for 30 minutes in Kreb's buffer (118 mM NaCl, 4.7 mMKCl, 1.2 mM MgCl2, 1.0 mM NaH2PO4, 1.3 mM CaCl2, 11.1 mM glucose, 25 mM NaHCO3, 0.11 mM L-ascorbic acid, and 0.004 mM disodium EDTA; pH 7.4, and saturated with 95% O2/5% CO2) in a metabolic shaker at 34° C. Slices were rinsed with 15 ml of fresh buffer and incubated for an additional 30 minutes in fresh buffer containing 0.1 μM [^3]H-DA (6 slices/3 ml). Subsequently, slices were rinsed with 15 ml of fresh buffer and transferred to a glass superfusion chamber. Slices were superfused (1.0 ml/min) for 60 minutes with Kreb's buffer containing nomifensine (10 μM) and pargyline (10 μM) and maintained at 34° C., pH 7.4, with continual aeration (95% O2/5% CO2). Two five minute samples (5 ml each) were collected to determine basal outflow of [^3H]-DA. […] Subsequently, S-(−)-nicotine (10 μM) was added to the buffer and an additional 12 consecutive five minute samples were collected. At the end of the experiment, each slice was solubilized and the [^3H] content of the tissue determined.
Radioactivity in the superfusate and tissue samples was determined by liquid scintillation spectroscopy. Fractional release for each sample was calculated by dividing by the total tritium present in the tissue at the time of sample collection, and was expressed as a percentage of total tissue tritium. […] The sum of the increase in collected tritium resulting from either exposure to the test-compound or exposure to nicotine in the absence and presence of the test compound equaled total [^3H]overflow. [^3H]Overflow was calculated by subtracting the [^3H]outflow during an equivalent period of prestimulation from the values in samples collected during and after drug exposure. Inasmuch as the radiolabelled compounds were not separated and identified, the tritium collected in superfusate is referred to as either [^3H]outflow or [^3 H]overflow, rather than as [^3H]-DA. [^3H]Overflow primarily represents [^3H]-DA in the presence of nomifensine and pargyline in the superfusion buffer.
In these experiments, striatal slices were superfused for 60 minutes with various concentrations of the analogs prior to NIC (10 μM) exposure. Antagonist activity was evaluated by comparing the NIC-evoked [^3H]overflow in the absence and presence of the analogs.

[3] = biological target: T2, α7 neuronal nicotinic acetylcholine receptor subtype (Rattus norvegicus, UniProt Q05941); assay: [3H]-MLA binding assay, rat brain membranes; details: read-out: Ki, displacement of [3H]-MLA binding
T2 construct: from tissue; host or cells: rat brain membranes (without cortex, striatum and cerebellum)
Experimental: Rat brain tissue (without cortex, striatum and cerebellum) was homogenized with a Tekmar Polytron (setting 40) in 20 volumes of ice-cold hypotonic buffer (2 mM HEPES, 14.4 mM NaCl, 0.15 mM KCl, 0.2 mM CaCl2 and 0.1 mM MgSO4, pH=7.5). The homogenate was incubated at 37° C. for 10 minutes and centrifuged at 25,000×g for 15 minutes at 40° C. The pellet was washed 3 times more by resuspension in the 20 volumes of the same buffer and centrifugation at the above parameters. The final pellet was stored at −20° C. under 4.6 ml of the incubation buffer and was suspended just before the incubation with radioligand.
The binding of [^3H]methyllycaconitine ([^3H]MLA), a probe for the α7 neuronal nicotinic acetylcholine receptor subtype, was determined using a modification of the method of Davies et al., “Characterisation of the binding of [^3H]methyllycaconitine: a new radioligand for labelling α7-type neuronal nicotinic acetylcholine receptors”, Neuropharmacology, 38, 679–690 (1999). [^3H]-MLA (25.4 Ci/mmol) was purchased from Tocris Cookson Ltd., Bristol, U.K. Binding was performed in duplicate, in a final volume of 250 μL of the incubation medium, containing 20 mM HEPES, 144 mM NaCl, 1.5 mM KCl, 2 mM CaCl2, 1 mM MgSO4 and 0.05% BSA, pH=7.5. Reaction was initiated by the addition of 100 μl of membrane suspension to the samples containing a desired concentration of test compounds and 2.5 nM [^3H]-MLA (final concentration) and incubated for 2 hours at room temperature. Total binding was measured in the absence of unlabelled ligand, and nonspecific binding was determined in the presence of 1 μM unlabelled MLA. The binding reaction was terminated by dilution of samples with 3 ml of ice-cold incubation buffer followed by immediate filtration through presoaked in 0.5% polyethylenimine glass fiber filters (S&S, grade #32) using a Brandel harvester system. Filters were rinsed three times with 3 ml of ice-cold buffer, transferred to scintillation vials and 4 ml of scintillation cocktail was added.

[4] = rat brain membranes, 2.5 nM [3H]-MLA

T1 sequence (P09483 31-630): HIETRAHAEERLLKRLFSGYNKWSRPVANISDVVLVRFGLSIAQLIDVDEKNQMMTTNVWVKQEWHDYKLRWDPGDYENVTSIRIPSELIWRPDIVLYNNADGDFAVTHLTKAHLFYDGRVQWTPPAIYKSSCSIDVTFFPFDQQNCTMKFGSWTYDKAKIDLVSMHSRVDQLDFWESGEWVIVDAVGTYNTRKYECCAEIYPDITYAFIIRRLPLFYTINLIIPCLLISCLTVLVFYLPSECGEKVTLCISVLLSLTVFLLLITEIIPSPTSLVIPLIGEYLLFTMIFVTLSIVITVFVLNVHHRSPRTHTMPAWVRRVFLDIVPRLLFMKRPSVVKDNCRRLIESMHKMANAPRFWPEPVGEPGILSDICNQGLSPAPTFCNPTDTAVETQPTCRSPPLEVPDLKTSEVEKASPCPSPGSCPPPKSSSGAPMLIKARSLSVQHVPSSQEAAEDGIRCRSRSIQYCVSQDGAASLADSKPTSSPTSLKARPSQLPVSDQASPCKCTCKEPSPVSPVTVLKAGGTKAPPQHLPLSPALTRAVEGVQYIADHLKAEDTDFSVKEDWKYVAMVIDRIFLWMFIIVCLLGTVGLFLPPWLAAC
T1 sequence (P12390 25-500): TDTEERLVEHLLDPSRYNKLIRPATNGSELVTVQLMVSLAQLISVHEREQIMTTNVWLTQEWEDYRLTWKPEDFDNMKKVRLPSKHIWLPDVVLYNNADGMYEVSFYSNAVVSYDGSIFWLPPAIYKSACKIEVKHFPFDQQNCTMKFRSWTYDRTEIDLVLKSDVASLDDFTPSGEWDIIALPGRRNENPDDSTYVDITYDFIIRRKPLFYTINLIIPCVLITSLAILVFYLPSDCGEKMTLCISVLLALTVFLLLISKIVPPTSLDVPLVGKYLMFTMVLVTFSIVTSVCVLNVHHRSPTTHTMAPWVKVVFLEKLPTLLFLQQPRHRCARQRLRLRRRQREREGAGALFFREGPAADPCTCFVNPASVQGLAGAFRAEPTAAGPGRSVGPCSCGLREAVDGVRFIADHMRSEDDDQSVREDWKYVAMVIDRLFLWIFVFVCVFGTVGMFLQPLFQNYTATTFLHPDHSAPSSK
T2 sequence (Q05941 23-502): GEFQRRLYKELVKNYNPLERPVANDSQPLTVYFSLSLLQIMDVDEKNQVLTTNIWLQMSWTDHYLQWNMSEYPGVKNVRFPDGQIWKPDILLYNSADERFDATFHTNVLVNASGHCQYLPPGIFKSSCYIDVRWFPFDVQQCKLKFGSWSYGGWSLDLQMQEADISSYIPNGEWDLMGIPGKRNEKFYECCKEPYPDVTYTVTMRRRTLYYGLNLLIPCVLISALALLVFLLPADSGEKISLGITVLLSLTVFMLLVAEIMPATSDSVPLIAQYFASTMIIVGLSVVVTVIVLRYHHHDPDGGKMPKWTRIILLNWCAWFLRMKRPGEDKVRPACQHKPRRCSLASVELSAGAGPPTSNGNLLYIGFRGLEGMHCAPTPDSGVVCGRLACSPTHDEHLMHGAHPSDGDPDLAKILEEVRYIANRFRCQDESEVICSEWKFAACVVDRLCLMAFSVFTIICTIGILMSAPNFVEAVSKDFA

Compound	Ki [1]	IC50 [2]	Ki [3]	Ki [3, 4]
CCCCC#CCC[n+]1cccc([C@@H]2CCCN2C)c1 [NONB-3y, (S)-3-(1-Methyl-pyrrolidin-2-yl)-1-oct-3-ynyl-pyridinium bromide]	200 nM	1680 nM	–	–
CCCC/C=C\CC[n+]1cccc([C@@H]2CCCN2C)c1 [NONB-3c, (S)-cis-3-(1-Methyl-pyrrolidin-2-yl)-1-oct-3-enyl-pyridinium bromide hydrobromide salt]	86 nM	2020 nM	–	–
C=CCCCCCC[n+]1cccc([C@@H]2CCCN2C)c1 [NONB-7e, (S)-3-(1-Methyl-pyrrolidin-2-yl)-1-oct-7-enyl-pyridinium bromide]	450 nM	2610 nM	–	–
α-Bungarotoxin [reference compound]	–	–	7.2 nM	–
CCCCC/C=C\CCC[n+]1cccc([C@@H]2CCCN2C)c1 [NDNB-4c, (S)-cis-1-Dec-4-enyl-3-(1-methyl-pyrrolidin-2-yl)-pyridinium bromide hydrobromide salt]	7790 nM	1480 nM	–	–
CCCC/C=C/CC[n+]1cccc([C@@H]2CCCN2C)c1 [NONB-3t, (S)-trans-3-(1-Methyl-pyrrolidin-2-yl)-1-oct-3-enyl-pyridinium bromide hydrobromide salt]	3970 nM	3470 nM	–	–
CC(C)CCCCCC[n+]1cccc([C@@H]2CCCN2C)c1 [NONB-7M, (S)-1-(7-Methyl-octyl)-3-(1-methyl-pyrrolidin-2-yl)-pyridinium bromide hydrobromide salt]	440 nM	> 100000 nM	–	–
CCCCC/C=C/CCC[n+]1cccc([C@@H]2CCCN2C)c1 [NDNB-4t, (S)-trans-1-Dec-4-enyl-3-(1-methyl-pyrrolidin-2-yl)-pyridinium bromide]	320 nM	330 nM	–	–
CCCCCCC#CCC[n+]1cccc([C@@H]2CCCN2C)c1 [NDNB-3y, (S)-1-Dec-3-ynyl-3-(1-methyl-pyrrolidin-2-yl)-pyridinium bromide]	810 nM	2590 nM	–	–
CCOCCOCC[n+]1cccc([C@@H]2CCCN2C)c1 [NONB-3O6O, (S)-1-[2-(2-Ethoxy-ethoxy)-ethyl]-3-(1-methyl-pyrrolidin-2-yl)-pyridinium bromide]	1200 nM	–	–	–
CN1CCC[C@H]1c1ccc[n+](CCCCCCC2CCCCC2)c1 [NCyNB-6, (S)-1-(6-Cyclohexyl-hexyl)-3-(1-methyl-pyrrolidin-2-yl)-pyridinium bromide hydrobromide salt]	4560 nM	–	–	42700 nM
CN1CCC[C@H]1c1ccc[n+](CCCCCCC2CCCC2)c1 [NCyNB-5, (S)-1-(6-Cyclopentyl-hexyl)-3-(1-methyl-pyrrolidin-2-yl)-pyridinium bromide hydrobromide salt]	5540 nM	–	–	88700 nM
CCCCCCCCCC[n+]1cccc([C@@H]2CCCN2C)c1 [NDNI, N-n-decylnicotinium iodide, reference compound]	93 nM	> 100000 nM	–	–
CCCCCCCC[n+]1cccc([C@@H]2CCCN2C)c1 [NONI, N-n-octylnicotinium iodide, reference compound]	–	620 nM	–	–
CC(C)=CCCCCC[n+]1cccc([C@@H]2CCCN2C)c1 [NONB-6e7M, (S)-1-(7-Methyl-oct-6-enyl)-3-(1-methyl-pyrrolidin-2-yl)-pyridinium bromide hydrobromide]	450 nM	1990 nM	–	–
CN1CCC[C@H]1c1ccc[n+](CCCCCCC2CCC2)c1 [NCyNB-4, (S)-1-(6-Cyclobutyl-hexyl)-3-(1-methyl-pyrrolidin-2-yl)pyridinium bromide hydrobromide salt]	7200 nM	–	–	30300 nM
